In PubChem BioAssay AID651963 (The Scripps Research Institute Molecular Screening Center, 2012):

System: C. elegans Q35::YFP muscle, polyQ foci count microscopy
Assay: PubChem AID 651963
Conditions: at 10 µM; stronger effect = lower value

Work on COc1ccc(/C=C/C=C2C(=O)NC(=O)NC2=O)cc1 yielded a relative foci of 33.8%.
